Reference: US20200056174A1, “COMPOSITIONS AND METHODS OF TREATING CANCER” (DANA-FARBER CANCER INSTITUTE, INC., priority 2016, published 2020)

How the values were obtained:
BT-549 cells = assay: Expression (qRT-PCR, immunoblot) in treated BT-549 TNBC cells; type: cell-based, human; conditions: vs vehicle
Description: (§1) Cell culture. Human BT-549, SUM-159 and mouse Eo771 TNBC cells were propagated in RPMI1640 medium (ATCC, Manassas, Va., USA). Human MDA-MB-468 and MDA-MB-231 TNBC cells were cultured in Dulbecco's modified Eagle's medium (DMEM) (Corning, Manassas, Va., USA). Human BT-20 TNBC cells were cultured in Eagle's Minimum Essential Medium (EMEM) (ATCC). Media were supplemented with 10% heat-inactivated fetal bovine serum, 100 units/ml penicillin, and 100 μg/ml streptomycin. Authentication of the cells was performed by short tandem repeat (STR) analysis. Cells were monitored for Mycoplasma contamination by MycoAlert® Mycoplasma Detection Kit (Lonza, Rockland, Mass., USA). BT-549 and MDA-MB-231 cells were transfected with lentiviral vectors to stably express a scrambled control shRNA (CshRNA; Sigma, St. Louis, Mo., USA) and a NF-κB p65 shRNA (Sigma). Human BT-20 and mouse Eo771 cells were stably transfected to express an empty vector or one encoding MUC1-C. […]
(§2) Quantitative real-time, reverse transcriptase PCR (qRT-PCR). […]
(§3) Immunoblot analysis. […] Immunoreactive complexes were detected using horseradish peroxidase-conjugated secondary antibodies (GE Healthcare Life Sciences, Marlborough, Mass., USA) and an enhanced chemiluminescence (ECL) detection reagents (Perkin Elmer Health Sciences, Waltham, Mass., USA). […] Lysates were analyzed using the Lightswitch Luciferase Assay Kit (Active Motif).

Eo771/MUC1-C cells = assay: Expression (qRT-PCR, immunoblot) in treated Eo771/MUC1-C cells; type: cell-based, mouse; conditions: vs vehicle
Description: as §1, §2, §3

BT-20/MUC1-C cells = assay: Expression (qRT-PCR, immunoblot) in treated BT-20/MUC1-C cells; type: cell-based, human; conditions: vs vehicle
Description: as §1, §2, §3

H1975 cells = assay: Gene expression (qRT-PCR) in treated H1975 NSCLC cells; type: cell-based, human; conditions: 5 μM BAY-11-7085, 18 h, vs DMSO
Description: (§4) Cell culture. Human A549/KRAS(G12S), H460/KRAS(Q61H) and H1975/EGFR(L858R/T790M) NSCLC cells (ATCC) were grown in RPMI1640 medium supplemented with 10% heat-inactivated fetal bovine serum (HI-FBS), 100 μg/ml streptomycin, 100 units/ml penicillin and 2 mM L-glutamine. Authentication of the cells was performed by short tandem repeat (STR) analysis. Cells were transfected with lentiviral vectors to stably express a scrambled control shRNA (CshRNA; Sigma), a MUC1 shRNA (MUC1shRNA; Sigma), a NF-κB p65 shRNA (Sigma), MUC1-C or MUC1-C (AQA) (27, 8, 49). Cells were treated with the IκB inhibitor BAY-11-7085 (Sigma) or DMSO as the vehicle control. Cells were also treated with empty nanoparticles (NPs) or GO-203/NPs (39).
(§5) Quantitative real-time, reverse transcriptase PCR (qRT-PCR). Whole cell RNA was isolated using the RNeasy mini kit (Qiagen). The High Capacity cDNA Reverse Transcription kit (Life Technologies) was used to synthesize cDNAs from 2 μg RNA. The SYBR green qPCR assay kit and the ABI Prism Sequence Detector (Applied Biosystems) were used to amplify the cDNAs.
(§6) Immunoblot analysis. Whole cell lysates were prepared in NP-40 lysis buffer and immunoblotted with antibodies against MUC1-C (LabVision), PD-L1 (Cell Signaling Technology) and β-actin (Sigma). Horseradish peroxidase secondary antibodies and enhanced chemiluminescence (GE Healthcare) were used for the detection of immune complexes.

H460 cells = assay: Gene expression (qRT-PCR) in treated H460 NSCLC cells; type: cell-based, human; conditions: 5 μM BAY-11-7085, 18 h, vs DMSO
Description: as §4, §5, §6

Row | SMILES | PD-L1 expression (BT-549 cells; 5 μM JQ1, 48 h) | MUC1-C→PD-L1 response (PD-L1 mRNA and protein) (Eo771/MUC1-C cells; 5 μM JQ1, 48 h) | PD-L1 expression (BT-20/MUC1-C cells; 5 μM JQ1, 48 h) | PD-L1 expression (BT-549 cells; 5 μM BAY-11-7085, 24 h) | MUC1-C→PD-L1 response (PD-L1 mRNA and protein) (Eo771/MUC1-C cells; 5 μM BAY-11-7085, 24 h) | PD-L1 expression (BT-20/MUC1-C cells; 5 μM BAY-11-7085, 24 h) | PD-L1 expression (mRNA, qRT-PCR) (H1975 cells) | TLR7 mRNA levels (H1975 cells) | PD-L1 expression (mRNA, qRT-PCR) (H460 cells) | TLR7 mRNA levels (H460 cells)
1 | Cc1sc2c(c1C)C(c1ccc(Cl)cc1)=N[C@@H](CC(=O)OC(C)(C)C)c1nnc(C)n1-2 [JQ1] | downregulation of PD-L1 expression | inhibited | downregulation of PD-L1 expression | – | – | – | – | – | – | –
2 | CC(C)(C)c1ccc(S(=O)(=O)/C=C/C#N)cc1 [BAY-11-7085] | – | – | – | suppression of PD-L1 expression | inhibited | suppression of PD-L1 expression | suppresses PD-L1 expression | decreases in TLR7 mRNA levels | suppresses PD-L1 expression | decreases in TLR7 mRNA levels
